PMC3778407, “Topochemical control of the photodimerization of aromatic compounds by γ-cyclodextrin thioethers in aqueous solution” (Beilstein Journal of Organic Chemistry, 2013)
≈ marks a conversion by molar mass, not a printed value. Where two headings read alike, the source gives them in different places.

What was measured:
[1] = parameters: method as in PMID 21739610; conditions: K/10^9 [M^−2]; host/guest 1:2; cited from earlier work
[2] = parameters: method as in PMID 21739610; conditions: K/10^6 M^−2; 1:2 host/guest; cited from earlier work
[3] = cited from earlier work
[4] = 1:2 (host/guest) binding constant of COU in γ-CD thioether 2 from solubility measurements
Method: (§1) Because the concentration of the free guest [G]free is determined by two coupled thermodynamic equilibria (Equation 1). The 2-phase solubility equilibrium is expressed by Equation 2 and the equilibrium of complexation by the CD host is formulated in Equation 3. The guest dissolves until the concentration of free guest is equal to the solubility of the guest, [G]0 = [G]free. Consequently, the lower the solubility of the guest in water, the lower the fraction of uncomplexed guests. The lower the concentration of the free guest, the lower the contribution of undesirable and non-specific photodimerization to the total quantum yield, according to Equation 4. Consequently, lowering the aqueous solubility of COU by the addition of salt, taking advantage of the so-called “salting-out effect” [46] appeared to be a plausible way to enhance the reaction selectivity of the syn-HH dimer.
Both effects based on the salt concentration led to a significant reduction in the contribution of the photodimerization of free COU to the total quantum yield Φ in Equation 4. Taking into account the molar fraction of the formation of syn-HH in water [drawing 5] from Table 3 and in the complex [drawing 6] , and assuming the quantum yield for the complex as Φcomplex = 19%, the total molar fraction [drawing 7] was calculated according to Equation 5, which was derived from Equation 4. The concentration of complexed COU, [COU]C, was determined as the increase in the solubility of COU upon the addition of the host. The calculated total quantum yields and molar fractions of the syn-HH isomer, listed in Table 5, are in good agreement with the measured values, listed in Table 4. It also shoes, that the binding constant K, calculated according to the law of mass action for the 1:2 (host/guest) complex, tremendously increases with the salt concentration leading to a strong increase of the complexed portion of COU. In contrast to the previous ANT system, the quantum yield of COU photodimerization increases with the binding const K, because K is much lower for COU than for ANT so that contribution of free COU is not negligible.
Photoreaction procedures: Aqueous solutions of the native CDs or γ-CD thioethers (25 mL, 6.0 mM) were added into glass vials containing excess amounts of the guest molecules. To evaluate the salting-out effect on the photo-product distribution of COU, different amounts of sodium sulfate were added to the vials to obtain the desired final salt concentration (Na2SO4 concentration: 0, 0.5, 1.0, and 1.5 M). Sample solutions were thoroughly degassed using sonication. […] The concentrations of the reactants in the CD solutions were determined from the UV–vis extinction coefficients at the absorption maxima.

[5] = Aqueous solubility of guests and solubilization by γ-CD thioethers; assay type: physicochemical; conditions: read-out: [COU]0 solubility of COU
Method: as §1
Photoreaction procedures: Aqueous solutions of the native CDs or γ-CD thioethers (25 mL, 6.0 mM) were added into glass vials containing excess amounts of the guest molecules. To evaluate the salting-out effect on the photo-product distribution of COU, different amounts of sodium sulfate were added to the vials to obtain the desired final salt concentration (Na2SO4 concentration: 0, 0.5, 1.0, and 1.5 M). Sample solutions were thoroughly degassed using sonication. The vials were tightly sealed, protected from light, and magnetically stirred at room temperature. After 72 h, the resulting suspensions were filtered through syringe filters. The concentrations of the reactants in the CD solutions were determined from the UV–vis extinction coefficients at the absorption maxima.

CC(SC[C@H]1O[C@@H]2O[C@H]3[C@H](O)[C@@H](O)[C@@H](O[C@H]4[C@H](O)[C@@H](O)[C@@H](O[C@H]5[C@H](O)[C@@H](O)[C@@H](O[C@H]6[C@H](O)[C@@H](O)[C@@H](O[C@H]7[C@H](O)[C@@H](O)[C@@H](O[C@H]8[C@H](O)[C@@H](O)[C@@H](O[C@H]9[C@H](O)[C@@H](O)[C@@H](O[C@H]1[C@H](O)[C@H]2O)O[C@@H]9CSC(C)C(=O)O)O[C@@H]8CSC(C)C(=O)O)O[C@@H]7CSC(C)C(=O)O)O[C@@H]6CSC(C)C(=O)O)O[C@@H]5CSC(C)C(=O)O)O[C@@H]4CSC(C)C(=O)O)O[C@@H]3CSC(C)C(=O)O)C(=O)O (some centres unmarked) [Host 4]
1:2 binding constant K of ANT [1]: 3.4 10^9 M^−2

O=C(O)CCSC[C@H]1O[C@@H]2O[C@H]3[C@H](O)[C@@H](O)[C@@H](O[C@H]4[C@H](O)[C@@H](O)[C@@H](O[C@H]5[C@H](O)[C@@H](O)[C@@H](O[C@H]6[C@H](O)[C@@H](O)[C@@H](O[C@H]7[C@H](O)[C@@H](O)[C@@H](O[C@H]8[C@H](O)[C@@H](O)[C@@H](O[C@H]9[C@H](O)[C@@H](O)[C@@H](O[C@H]1[C@H](O)[C@H]2O)O[C@@H]9CSCCC(=O)O)O[C@@H]8CSCCC(=O)O)O[C@@H]7CSCCC(=O)O)O[C@@H]6CSCCC(=O)O)O[C@@H]5CSCCC(=O)O)O[C@@H]4CSCCC(=O)O)O[C@@H]3CSCCC(=O)O [Host 6]
1:2 binding constant K of ANT [1]: 6.5 10^9 M^−2
binding constant K of ACE [2]: 27 10^6 M^−2

c1ccc2cc3ccccc3cc2c1 [ANT, anthracene]
solubility of free ANT ([3]; water): 0.0004 mM

NCCSC[C@H]1O[C@@H]2O[C@H]3[C@H](O)[C@@H](O)[C@@H](O[C@H]4[C@H](O)[C@@H](O)[C@@H](O[C@H]5[C@H](O)[C@@H](O)[C@@H](O[C@H]6[C@H](O)[C@@H](O)[C@@H](O[C@H]7[C@H](O)[C@@H](O)[C@@H](O[C@H]8[C@H](O)[C@@H](O)[C@@H](O[C@H]9[C@H](O)[C@@H](O)[C@@H](O[C@H]1[C@H](O)[C@H]2O)O[C@@H]9CSCCN)O[C@@H]8CSCCN)O[C@@H]7CSCCN)O[C@@H]6CSCCN)O[C@@H]5CSCCN)O[C@@H]4CSCCN)O[C@@H]3CSCCN [Host 1]
1:2 binding constant K of ANT [1]: 22.8 10^9 M^−2
highest concentration of ANT achieved, [ANT] ([3]; 6 mM solution of host in water): 0.04 mM

COCCOCCOCCSC[C@H]1O[C@@H]2O[C@H]3[C@H](O)[C@@H](O)[C@@H](O[C@H]4[C@H](O)[C@@H](O)[C@@H](O[C@H]5[C@H](O)[C@@H](O)[C@@H](O[C@H]6[C@H](O)[C@@H](O)[C@@H](O[C@H]7[C@H](O)[C@@H](O)[C@@H](O[C@H]8[C@H](O)[C@@H](O)[C@@H](O[C@H]9[C@H](O)[C@@H](O)[C@@H](O[C@H]1[C@H](O)[C@H]2O)O[C@@H]9CSCCOCCOCCOC)O[C@@H]8CSCCOCCOCCOC)O[C@@H]7CSCCOCCOCCOC)O[C@@H]6CSCCOCCOCCOC)O[C@@H]5CSCCOCCOCCOC)O[C@@H]4CSCCOCCOCCOC)O[C@@H]3CSCCOCCOCCOC [Host 7]
1:2 binding constant K of ANT [1]: 7.7 10^9 M^−2

OCC(O)CSC[C@H]1O[C@@H]2O[C@H]3[C@H](O)[C@@H](O)[C@@H](O[C@H]4[C@H](O)[C@@H](O)[C@@H](O[C@H]5[C@H](O)[C@@H](O)[C@@H](O[C@H]6[C@H](O)[C@@H](O)[C@@H](O[C@H]7[C@H](O)[C@@H](O)[C@@H](O[C@H]8[C@H](O)[C@@H](O)[C@@H](O[C@H]9[C@H](O)[C@@H](O)[C@@H](O[C@H]1[C@H](O)[C@H]2O)O[C@@H]9CSCC(O)CO)O[C@@H]8CSCC(O)CO)O[C@@H]7CSCC(O)CO)O[C@@H]6CSCC(O)CO)O[C@@H]5CSCC(O)CO)O[C@@H]4CSCC(O)CO)O[C@@H]3CSCC(O)CO (some centres unmarked) [Host 5]
1:2 binding constant K of ANT [1]: 3.7 10^9 M^−2

O=C(O)CSC[C@H]1O[C@@H]2O[C@H]3[C@H](O)[C@@H](O)[C@@H](O[C@H]4[C@H](O)[C@@H](O)[C@@H](O[C@H]5[C@H](O)[C@@H](O)[C@@H](O[C@H]6[C@H](O)[C@@H](O)[C@@H](O[C@H]7[C@H](O)[C@@H](O)[C@@H](O[C@H]8[C@H](O)[C@@H](O)[C@@H](O[C@H]9[C@H](O)[C@@H](O)[C@@H](O[C@H]1[C@H](O)[C@H]2O)O[C@@H]9CSCC(=O)O)O[C@@H]8CSCC(=O)O)O[C@@H]7CSCC(=O)O)O[C@@H]6CSCC(=O)O)O[C@@H]5CSCC(=O)O)O[C@@H]4CSCC(=O)O)O[C@@H]3CSCC(=O)O [Host 2]
1:2 binding constant K of ANT [1]: 7.7 10^9 M^−2
binding constant K of COU complexed in 2 ([4]; [Na2SO4] 0.0 M, 1:2 host/guest, law of mass action, from solubility measurements): 2 10^3 M^−2
binding constant K of COU complexed in 2 ([4]; [Na2SO4] 0.5 M): 30 10^3 M^−2
binding constant K of COU complexed in 2 ([4]; [Na2SO4] 1.0 M): 97 10^3 M^−2
binding constant K of COU complexed in 2 ([4]; [Na2SO4] 1.5 M): 1000 10^3 M^−2

O=c1ccc2ccccc2o1 [COU, coumarin]
solubility at 72 h ([5]; water with Na2SO4, thermodynamic from solid, [Na2SO4] 0.5 M): 8.5 mM (≈ 1240 µg/mL)
solubility at 72 h ([5]; water with Na2SO4, thermodynamic from solid, [Na2SO4] 1.0 M): 4.7 mM (≈ 687 µg/mL)
solubility at 72 h ([5]; water with Na2SO4, thermodynamic from solid, [Na2SO4] 1.5 M): 2.6 mM (≈ 380 µg/mL)
solubility at 72 h ([5]; water, thermodynamic from solid, [Na2SO4] 0.0 M): 15.2 mM (≈ 2220 µg/mL)
aqueous solubility ([3]; water): 15 mM (≈ 2190 µg/mL)

O=S(=O)(O)CCSC[C@H]1O[C@@H]2O[C@H]3[C@H](O)[C@@H](O)[C@@H](O[C@H]4[C@H](O)[C@@H](O)[C@@H](O[C@H]5[C@H](O)[C@@H](O)[C@@H](O[C@H]6[C@H](O)[C@@H](O)[C@@H](O[C@H]7[C@H](O)[C@@H](O)[C@@H](O[C@H]8[C@H](O)[C@@H](O)[C@@H](O[C@H]9[C@H](O)[C@@H](O)[C@@H](O[C@H]1[C@H](O)[C@H]2O)O[C@@H]9CSCCS(=O)(=O)O)O[C@@H]8CSCCS(=O)(=O)O)O[C@@H]7CSCCS(=O)(=O)O)O[C@@H]6CSCCS(=O)(=O)O)O[C@@H]5CSCCS(=O)(=O)O)O[C@@H]4CSCCS(=O)(=O)O)O[C@@H]3CSCCS(=O)(=O)O [Host 3]
1:2 binding constant K of ANT [1]: 6.8 10^9 M^−2
binding constant K of ACE [2]: 37 10^6 M^−2
